Measurements reported in article PMC12638379, “An innovative approach to development of new pyrazolylquinolin-2-one hybrids as dual EGFR and BRAF^V600E inhibitors” (Molecular Diversity, 2025).
Where two headings read alike, the source gives them in different places.

Key:
NCI 60 cancer cell lines = assay: NCI anticancer screening over a panel of 60 cancer cells, single concentration 10 µM; assay type: cell-based, human; conditions: Homo sapiens, read-out: % Growth Inhibition (GI %)
Outline: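 Run under the NCI Compound Evaluation Branch protocol, each compound was tested once at 10 µM. The panel comprised 60 cancer cell lines of diverse tissue origin, including leukemia, lung, colon, CNS, renal, ovarian, breast and prostate.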

[1] = tested on: breast cancer (T47D) cell line; assay: MTT antiproliferative assay, T-47D
Outline: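 HOP-92, MOLT-4 and T-47D cells in DMEM/10% FBS/insulin exposed 24 h to serial 10-fold dilutions […]; MTT added 2–4 h, absorbance at 570 nm with 690 nm background subtraction. Percent viable cells gives IC50; GI50 is the average IC50 across the three lines.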

[2] = tested on: leukemia (MOLT-4) cell line; assay: MTT antiproliferative assay, MOLT-4; assay type: cell-based, human
Procedure: After 24 h of culture incubation and supernatants discarded.

EGFR = biological target: T1, EGFR (Homo sapiens, UniProt P00533); assay: EGFR inhibitory assay; assay type: biochemical; conditions: for %inh: EGFR, unit not given
T1 construct: EGFR cytoplasmic domain (EGFR-CD, amino acids 645–1186); His6 (N); made in house; host or cells: Sf-9 insect cells (baculovirus)
T1 sequence (P00533 669-1210): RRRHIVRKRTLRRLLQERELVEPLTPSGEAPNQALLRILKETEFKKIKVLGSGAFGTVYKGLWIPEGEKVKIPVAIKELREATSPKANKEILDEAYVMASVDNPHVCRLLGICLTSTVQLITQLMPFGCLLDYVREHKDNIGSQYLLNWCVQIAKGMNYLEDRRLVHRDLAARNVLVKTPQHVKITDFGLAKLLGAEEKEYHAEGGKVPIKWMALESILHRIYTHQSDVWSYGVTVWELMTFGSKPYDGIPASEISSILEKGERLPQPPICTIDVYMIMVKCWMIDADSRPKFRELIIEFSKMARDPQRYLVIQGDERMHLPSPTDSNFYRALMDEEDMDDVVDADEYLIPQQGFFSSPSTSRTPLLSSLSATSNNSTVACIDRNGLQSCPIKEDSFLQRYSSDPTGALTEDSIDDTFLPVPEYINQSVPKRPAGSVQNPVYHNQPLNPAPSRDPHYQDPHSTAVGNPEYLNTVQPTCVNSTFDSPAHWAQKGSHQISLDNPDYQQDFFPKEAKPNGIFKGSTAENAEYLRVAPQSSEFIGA

[3] = MTT cytotoxicity on normal cell line WI-38; conditions: human, WI-38 normal cells, % viability
normal cell line WI-38 = assay: MTT cytotoxicity on normal cell line WI-38

## C/C(=N\Nc1ccc(C(=O)O)cc1)c1cnn(-c2cc(=O)[nH]c3ccc(C)cc23)c1C [Compound 4g, (E)-4-(2-(1-(5-methyl-1-(6-methyl-2-oxo-1,2-dihydroquinolin-4-yl)-1H-pyrazol-4-yl)ethylidene)hydrazineyl)benzoic acid]
NCI 60 cancer cell lines; 786-0, Renal cancer 786-0, 10 μM
  inhibition at 10 µM: 6.84%
NCI 60 cancer cell lines; A498, Renal cancer A498, 10 μM
  inhibition at 10 µM: < 5%
NCI 60 cancer cell lines; A549, Non-small cell lung cancer A549/ATCC, 10 μM
  inhibition at 10 µM: < 5%
NCI 60 cancer cell lines; ACHN, Renal cancer ACHN, 10 μM
  inhibition at 10 µM: < 5%
NCI 60 cancer cell lines; BT-549, Breast cancer BT-549, 10 μM
  inhibition at 10 µM: 11.6%
NCI 60 cancer cell lines; CAKI-1, Renal cancer CAKI-1, 10 μM
  inhibition at 10 µM: 10.3%
NCI 60 cancer cell lines; CCRF-CEM, Leukemia CCRF-CEM, 10 μM
  inhibition at 10 µM: 6.98%
NCI 60 cancer cell lines; DU-145, Prostate cancer DU-145, 10 μM
  inhibition at 10 µM: < 5%
NCI 60 cancer cell lines; EKVX, Non-small cell lung cancer EKVX, 10 μM
  inhibition at 10 µM: 7.01%
NCI 60 cancer cell lines; HCC 2998, Colon cancer HCC-2998, 10 μM
  inhibition at 10 µM: < 5%
NCI 60 cancer cell lines; HL-60, Leukemia HL-60(TB), 10 μM
  inhibition at 10 µM: < 5%
NCI 60 cancer cell lines; HOP-62, Non-small cell lung cancer HOP-62, 10 μM
  inhibition at 10 µM: 6.86%
NCI 60 cancer cell lines; HOP-92, Non-small cell lung cancer HOP-92, 10 μM
  inhibition at 10 µM: 93.9%
NCI 60 cancer cell lines; HT-29, Colon cancer HT29, 10 μM
  inhibition at 10 µM: < 5%
NCI 60 cancer cell lines; Hs-578T, Breast cancer HS 578T, 10 μM
  inhibition at 10 µM: 7.48%
NCI 60 cancer cell lines; IGROV-1, Ovarian cancer IGROV1, 10 μM
  inhibition at 10 µM: < 5%
NCI 60 cancer cell lines; K562, Leukemia K-562, 10 μM
  inhibition at 10 µM: < 5%
NCI 60 cancer cell lines; LOX IMVI, Melanoma LOX IMVI, 10 μM
  inhibition at 10 µM: 5.11%
NCI 60 cancer cell lines; Leukemia SR, 10 μM
  inhibition at 10 µM: 11.4%
NCI 60 cancer cell lines; MCF7, Breast cancer MCF7, 10 μM
  inhibition at 10 µM: 9.62%
NCI 60 cancer cell lines; MDA-MB-231, Breast cancer MDA-MB-231/ATCC, 10 μM
  inhibition at 10 µM: 8.94%
NCI 60 cancer cell lines; MDA-MB-435, Melanoma MDA-MB-435, 10 μM
  inhibition at 10 µM: < 5%
NCI 60 cancer cell lines; MDA-MB-468, Breast cancer MDA-MB-468, 10 μM
  inhibition at 10 µM: 16.8%
NCI 60 cancer cell lines; Melanoma MALM-3M, 10 μM
  inhibition at 10 µM: 16.7%
NCI 60 cancer cell lines; NCI-H23, Non-small cell lung cancer NCI-H23, 10 μM
  inhibition at 10 µM: < 5%
NCI 60 cancer cell lines; NCI-H226, Non-small cell lung cancer NCI-H226, 10 μM
  inhibition at 10 µM: 9.91%
NCI 60 cancer cell lines; NCI-H322M, Non-small cell lung cancer NCI-H322M, 10 μM
  inhibition at 10 µM: < 5%
NCI 60 cancer cell lines; NCI-H460, Non-small cell lung cancer NCI-H460, 10 μM
  inhibition at 10 µM: < 5%
NCI 60 cancer cell lines; NCI-H522, Non-small cell lung cancer NCI-H522, 10 μM
  inhibition at 10 µM: 10.6%
NCI 60 cancer cell lines; NCI/ADR-RES, Ovarian cancer NCI/ADR-RES, 10 μM
  inhibition at 10 µM: < 5%
NCI 60 cancer cell lines; OVCAR-4, Ovarian cancer OVCAR-4, 10 μM
  inhibition at 10 µM: 5.43%
NCI 60 cancer cell lines; OVCAR-8, Ovarian cancer OVCAR-8, 10 μM
  inhibition at 10 µM: < 5%
NCI 60 cancer cell lines; Prostate cancer PC-3, 10 μM
  inhibition at 10 µM: 11.2%
NCI 60 cancer cell lines; RPMI-8226, Leukemia RPMI-8226, 10 μM
  inhibition at 10 µM: 14.9%
NCI 60 cancer cell lines; RXF 393, Renal cancer RXF 393, 10 μM
  inhibition at 10 µM: 6.27%
NCI 60 cancer cell lines; SF-539, CNS Cancer SF-539, 10 μM
  inhibition at 10 µM: < 5%
NCI 60 cancer cell lines; SK-MEL-2, Melanoma SK-MEL-2, 10 μM
  inhibition at 10 µM: < 5%
NCI 60 cancer cell lines; SK-MEL-28, Melanoma SK-MEL-28, 10 μM
  inhibition at 10 µM: < 5%
NCI 60 cancer cell lines; SK-OV-3, Ovarian cancer SK-OV-3, 10 μM
  inhibition at 10 µM: 5.67%
NCI 60 cancer cell lines; SN12C, Renal cancer SN12C, 10 μM
  inhibition at 10 µM: 7.44%
NCI 60 cancer cell lines; SNB-75, CNS Cancer SNB-75, 10 μM
  inhibition at 10 µM: 8.08%
NCI 60 cancer cell lines; TK-10, Renal cancer TK-10, 10 μM
  inhibition at 10 µM: < 5%
NCI 60 cancer cell lines; U-251, CNS Cancer U251, 10 μM
  inhibition at 10 µM: < 5%
NCI 60 cancer cell lines; UACC-62, Melanoma UACC-62, 10 μM
  inhibition at 10 µM: 8.46%
NCI 60 cancer cell lines; UACC-257, Melanoma UACC-257, 10 μM
  inhibition at 10 µM: < 5%
NCI 60 cancer cell lines; UO-31, Renal cancer UO-31, 10 μM
  inhibition at 10 µM: 32.1%
[1]; Homo sapiens, T47D, T-47D, 0.4uM (log conc. -0.41)
  viability at 0.4 µM: 68.5%
[1]; Homo sapiens, T47D, T-47D, 1.6uM (log conc. 0.19)
  viability at 1.6 µM: 61.7%
[1]; Homo sapiens, T47D, T-47D, 6.3uM (log conc. 0.8)
  viability at 6.3 µM: 55%
[1]; Homo sapiens, T47D, T-47D, 25uM (log conc. 1.4)
  viability at 25 µM: 44.6%
[1]; Homo sapiens, T47D, T-47D, 100uM (log conc. 2)
  viability at 100 µM: 34%
[1]; Homo sapiens, T47D, read-out: Antiproliferative activity IC50 ± SEM, T-47D, MTT
  IC50: 9.71 ± 0.34 µM
[1]; T-47D, 0.4uM (log conc. -0.41), listed as Ws7, 0.4 µM
  % viability: 68.49%
[1]; T-47D, 1.6uM (log conc. 0.19), listed as Ws7, 1.6 µM
  % viability: 61.66%
[1]; T-47D, 6.3uM (log conc. 0.8), listed as Ws7, 6.3 µM
  % viability: 55.01%
[1]; T-47D, 25uM (log conc. 1.4), listed as Ws7, 25 µM
  % viability: 44.58%
[1]; T-47D, 100uM (log conc. 2), listed as Ws7, 100 µM
  % viability: 33.98%
[2]; Homo sapiens, MOLT-4, MOLT-4, MTT, 0.4uM
  viability at 0.4 µM: 68.9%
[2]; Homo sapiens, MOLT-4, MOLT-4, MTT, 1.6uM
  viability at 1.6 µM: 54.8%
[2]; Homo sapiens, MOLT-4, MOLT-4, MTT, 6.3uM
  viability at 6.3 µM: 48.2%
[2]; Homo sapiens, MOLT-4, MOLT-4, MTT, 25uM
  viability at 25 µM: 42.4%
[2]; Homo sapiens, MOLT-4, MOLT-4, MTT, 100uM
  viability at 100 µM: 35.3%
[2]; Homo sapiens, MOLT-4, MTT, read-out: Antiproliferative activity IC50 ± SEM, MOLT-4
  IC50: 6.17 ± 0.25 µM
[2]; MOLT-4, MTT, 1.6uM, listed as Ws7, 1.6 µM
  % viability: 54.85%
[2]; MOLT-4, MTT, 6.3uM, listed as Ws7, 6.3 µM
  % viability: 48.2%
[2]; MOLT-4, MTT, 25uM, listed as Ws7, 25 µM
  % viability: 42.37%
[2]; MOLT-4, MTT, 100uM, listed as Ws7, 100 µM
  % viability: 35.35%
EGFR; conc 0.01 (log -2)
  %inh: 21%
EGFR; conc 0.1 (log -1)
  %inh: 44.2%
EGFR; conc 1 (log 0)
  %inh: 71.4%
EGFR; conc 10 (log 1)
  %inh: 86.3%
EGFR; conc 100 (log 2)
  %inh: 94.5%
EGFR; read-out: EGFR inhibition IC50 ± SEM
  IC50: 0.194 ± 0.007 µM
[3]; WI38, 0.4uM (log conc. -0.41)
  viability at 24 h, 0.4 µM: 80.4%
[3]; WI38, 1.6uM (log conc. 0.19)
  viability at 24 h, 1.6 µM: 70.2%
[3]; WI38, 6.3uM (log conc. 0.8)
  viability at 24 h, 6.3 µM: 62.8%
[3]; WI38, 25uM (log conc. 1.4)
  viability at 24 h, 25 µM: 51.6%
[3]; WI38, 100uM (log conc. 2)
  viability at 24 h, 100 µM: 44.1%
Normal cell line WI-38; Homo sapiens, read-out: Antiproliferative activity IC50 ± SEM
  IC50: 37.6 ± 1.5 µM
Normal cell line WI-38; WI38, 0.4uM (log conc. -0.41), listed as Ws7, 0.4 µM
  % viability: 80.43%
Normal cell line WI-38; WI38, 1.6uM (log conc. 0.19), listed as Ws7, 1.6 µM
  % viability: 70.19%
Normal cell line WI-38; WI38, 6.3uM (log conc. 0.8), listed as Ws7, 6.3 µM
  % viability: 62.8%
Normal cell line WI-38; WI38, 25uM (log conc. 1.4), listed as Ws7, 25 µM
  % viability: 51.55%
Normal cell line WI-38; WI38, 100uM (log conc. 2), listed as Ws7, 100 µM
  % viability: 44.1%
